According to US20230013669A1, “Antibacterial Treatment Using a Cannabinoid and an Active Agent” (priority 2019, published 2023):
Values after ≈ are worked out from the molar mass of the structure shown. Values joined by “and” are separate entries in the source; they are usually repeats but may differ in a detail not shown here. Equal values may be shown once. Read-outs that look alike come from different tables or passages of the source.

Experiments:
Format in all cases: cell-based
[1] = system: Klebsiella pneumoniae ATCC 13883 (GN_003 / GN_004); assay: MIC micro-broth dilution assay (Example 1 method)
[2] = system: Acinetobacter baumannii 03.021.1 (GN_038), Colistin resistant; assay: Synergy of cannabidiol with cell-wall disrupting agent (CBD MIC in combination, FICI); conditions: for MIC: Acinetobacter baumannii
Procedure: (§1) The compounds were stored short term at 4° C.
(§2) Analysis was performed using Microsoft Excel.

[3] = system: Acinetobacter baumannii 03.021.1 (GN_039), Colistin resistant; assay: as above; conditions: for MIC: Acinetobacter baumannii
Procedure: as §1, §2

[4] = system: Klebsiella pneumoniae ATCC 700603; assay: as above; conditions: for FICI: CBD MIC taken as 256 μg/mL
Procedure: Methods were as for Example 1. Cannabidiol was tested in combination with cefotetan.
Methods were as for Example 1. Cannabidiol was tested in combination with aztreonam.
Methods were as for Example 1. Cannabidiol was tested in combination with cefepime.
Methods were as for Example 1. Cannabidiol was tested in combination with octapeptin C4.
Methods were as for Example 1. Cannabidiol was tested in combination with Spero SPR206. The experiments were carried out three times.

[5] = Example 9, GN_038, listed as CBD
[6] = Example 9, GN_039, listed as CBD

Q: Which MIC ([1]; ATCC 13883 / ATCC 700603, CBD alone, Klebsiella pneumoniae ATCC 700603 as printed in the table, read-out: CBD MIC) does the source give for `C=C(C)C1CCC(C)=CC1c1c(O)cc(CCCCC)cc1O` (stereo not shown) [Cannabidiol, 2-[3-methyl-6-(1-methylethenyl)-2-cyclohexen-1-yl]-5-pentyl-1,3-benzenediol] here?
A: Its MIC is 256 µg/mL (≈ 814 µM).

Q: And the “Minimum Inhibitory Concentration (MIC)” value ([1]; Example 4 Table 15, GN_003, compound alone, replicates)?
A: The value was over 256 µg/mL.

Q: What about the “Minimal Inhibitory Concentration (MIC)” value ([1]; Example 7 Table 27, GN_004, compound alone, replicates) of the same compound?
A: Its value is over 256 µg/mL.

Q: What about the “CBD MIC” value ([1]; Klebsiella pneumoniae ATCC 700603 (so in the source), CBD alone) of the same compound?
A: Its value is 256 µg/mL.

Q: And the MIC ([1]; Klebsiella pneumoniae, ATCC13883, Example 4 Table 15, GN_003, compound alone, replicates, read-out: Minimum Inhibitory Concentration (MIC))?
A: Its MIC is over 256 µg/mL.

Q: What about the MIC ([1]; Klebsiella pneumoniae, ATCC13883, Example 7 Table 27, GN_004, compound alone, replicates, read-out: Minimal Inhibitory Concentration (MIC)) of the same compound?
A: Its MIC is over 256 µg/mL.

Q: What about the MIC ([2]; read-out: CBD MIC with MCC_00636 at concentration 0.25 μg/mL, Example 8, GN_038) of the same compound?
A: The MIC was 2 µg/mL.

Q: What about the MIC ([2]; read-out: CBD MIC with MCC_00636 at concentration 0.5 μg/mL, Example 8, GN_038) of the same compound?
A: The MIC was 0.000977 µg/mL.

Q: And the MIC ([2]; read-out: CBD MIC with MCC_00636 at concentration […], Example 8, GN_038)?
A: The MIC was 32 µg/mL.

Q: What about the MIC ([2]; read-out: CBD MIC with MCC_09222 at concentration 8 μg/mL, Example 9, GN_038) of the same compound?
A: Its MIC is 4 µg/mL.

Q: What about the MIC ([2]; read-out: CBD MIC with MCC_09222 at concentration 16 μg/mL, Example 9, GN_038) of the same compound?
A: The MIC was 2 µg/mL.

Q: And the MIC ([2]; read-out: CBD MIC with MCC_09222 at concentration 32 μg/mL, Example 9, GN_038)?
A: The MIC was 1 µg/mL.

Q: What about the MIC ([2]; read-out: CBD MIC with MCC_09222 at concentration 64 μg/mL, Example 9, GN_038) of the same compound?
A: The MIC was 0.000977 µg/mL.

Q: And the MIC ([2]; read-out: CBD MIC with MCC_09222 at concentration 128 μg/mL, Example 9, GN_038)?
A: Its MIC is 0.000977 µg/mL.

Q: And the “cannabidiol combined with Polymyxin B: synergy” value ([2]; Example 8)?
A: The value was “synergy”.

Q: What about the “CBD MIC with MCC_00636 at concentration 0.25 μg/mL” value ([2]; Example 8, GN_038, listed as CBD) of the same compound?
A: Its value is 4 µg/mL.

Q: What about the “cannabidiol in combination with MCC_09222: synergy” value ([2]; Example 9) of the same compound?
A: The value was “synergistic effect”.

Q: And the “CBD MIC with MCC_09222 at concentration 8 μg/mL” value [2, 5]?
A: The value was 2 µg/mL.

Q: And the “CBD MIC with MCC_09222 at concentration 32 μg/mL” value [2, 5]?
A: The value was 0.5 µg/mL.

Q: What about the MIC ([3]; read-out: CBD MIC with MCC_00636 at concentration 0.25 μg/mL, Example 8, GN_039) of the same compound?
A: Its MIC is 4 µg/mL.

Q: And the MIC ([3]; read-out: CBD MIC with MCC_00636 at concentration 0.5 μg/mL, Example 8, GN_039)?
A: The MIC was 0.000977 µg/mL.

Q: And the MIC ([3]; read-out: CBD MIC with MCC_00636 at concentration 1 μg/mL, Example 8, GN_039)?
A: Its MIC is 0.000977 µg/mL.

Q: And the MIC ([3]; read-out: CBD MIC with MCC_00636 at concentration […], Example 8, GN_039)?
A: Its MIC is 4 µg/mL.

Q: What about the MIC ([3]; read-out: CBD MIC with MCC_09222 at concentration 16 μg/mL, Example 9, GN_039) of the same compound?
A: The MIC was 1 µg/mL.

Q: And the MIC ([3]; read-out: CBD MIC with MCC_09222 at concentration 32 μg/mL, Example 9, GN_039)?
A: The MIC was 0.5 µg/mL.

Q: What about the MIC ([3]; read-out: CBD MIC with MCC_09222 at concentration 64 μg/mL, Example 9, GN_039) of the same compound?
A: Its MIC is 0.000977 µg/mL.

Q: What about the MIC ([3]; read-out: CBD MIC with MCC_09222 at concentration 128 μg/mL, Example 9, GN_039) of the same compound?
A: Its MIC is 0.000977 µg/mL.

Q: What about the “cannabidiol combined with Polymyxin B: synergy” value ([3]; Example 8) of the same compound?
A: Its value is “synergy”.

Q: What about the “cannabidiol in combination with MCC_09222: synergy” value ([3]; Example 9) of the same compound?
A: Its value is “synergistic effect”.

Q: What about the “CBD MIC with MCC_09222 at concentration 16 μg/mL” value [3, 6] of the same compound?
A: The value was 2 µg/mL.

Q: What about the “CBD MIC with MCC_09222 at concentration 32 μg/mL” value [3, 6] of the same compound?
A: The value was 1 µg/mL.

Q: And the “CBD MIC with Aztreonam” value ([4]; Aztreonam at 64 μg/mL)?
A: The value was 0.001 µg/mL.

Q: What about the FICI ([4]; CBD with Aztreonam at 2 μg/mL) of the same compound?
A: Its FICI is 1.

Q: What about the FICI ([4]; CBD with Aztreonam at 4 μg/mL) of the same compound?
A: Its FICI is 1.

Q: What about the FICI ([4]; CBD with Aztreonam at 8 μg/mL) of the same compound?
A: The FICI was 1.001.

Q: And the FICI ([4]; CBD with Aztreonam at 16 μg/mL)?
A: The FICI was 1.002.

Q: What about the FICI ([4]; CBD with Aztreonam at 32 μg/mL) of the same compound?
A: Its FICI is 1.004.

Q: What about the FICI ([4]; CBD with Aztreonam at 64 μg/mL) of the same compound?
A: Its FICI is 0.007816.

Q: What about the FICI range ([4]; CBD with Aztreonam, Synergy table (Table 76)) of the same compound?
A: The FICI range was 0.008.

Q: What about the FICI range ([4]; CBD with Aztreonam, all tested concentrations (Table 74)) of the same compound?
A: The FICI range was 0.01-1.

Q: What about the FICI ([4]; CBD with Cefepime at 0.015 μg/mL) of the same compound?
A: Its FICI is 1.015.

Q: What about the FICI ([4]; CBD with Cefepime at 0.031 μg/mL) of the same compound?
A: The FICI was 1.031.

Q: What about the FICI ([4]; CBD with Cefepime at 0.062 μg/mL) of the same compound?
A: Its FICI is 1.062.

Q: What about the FICI ([4]; CBD with Cefepime at 0.5 μg/mL) of the same compound?
A: The FICI was 1.5.

Q: What about the FICI range ([4]; CBD with Cefepime, all tested concentrations (Table 79)) of the same compound?
A: Its FICI range is 1.02-1.5.

Q: What about the FICI ([4]; CBD with Cefotetan at 0.015 μg/mL) of the same compound?
A: The FICI was 1.03 and 1.015.

Q: And the FICI ([4]; CBD with Cefotetan at 0.031 μg/mL)?
A: Its FICI is 1.062 and 1.031.

Q: And the FICI ([4]; CBD with Cefotetan at 0.062 μg/mL)?
A: Its FICI is 1.124 and 1.062.

Q: What about the FICI ([4]; CBD with Cefotetan at 0.25 μg/mL) of the same compound?
A: The FICI was 1.5.

Q: What about the FICI ([4]; CBD with Cefotetan at 0.5 μg/mL) of the same compound?
A: Its FICI is 1 and 0.5.

Q: What about the FICI ([4]; CBD with Octapeptin C4 at 0.25 μg/mL) of the same compound?
A: Its FICI is 1.0625.

Q: What about the FICI ([4]; CBD with Octapeptin C4 at 0.5 μg/mL) of the same compound?
A: The FICI was 1.0625.

Q: What about the FICI ([4]; CBD with Octapeptin C4 at 2 μg/mL) of the same compound?
A: The FICI was 1.5.

Q: And the FICI ([4]; CBD with Octapeptin C4 at […])?
A: Its FICI is 1.016.

Q: And the FICI range ([4]; CBD with Spero SPR206, 1st of 3 experiments)?
A: Its FICI range is 0.52-16.

Q: What about the FICI range ([4]; CBD with Spero SPR206, 2nd of 3 experiments) of the same compound?
A: The FICI range was 0.28-1.12.

Q: And the FICI range ([4]; CBD with Spero SPR206, 3rd of 3 experiments)?
A: Its FICI range is 1.25-8.

Q: What about the FICI ([4]; CBD with Spero SPR206 at 0.007 μg/mL, 2nd of 3 experiments) of the same compound?
A: Its FICI is 1.014.
